Source: the NIST ThermoML archive (doi:10.1021/je060376d)
± gives the expanded uncertainty stated by the source.

Experiment: refractive index (Na D-line) (dimensionless)
Conditions: 298.15 K; 101.33 kPa; Liquid; Standard Abbe refractometry

Row | SMILES | refractive index
1 | CC(C)=O [acetone] | 1.3562 ± 0.0012
2 | C1CCCCC1 [cyclohexane] | 1.4236 ± 0.0008
3 | O=C1CCCCC1 [cyclohexanone] | 1.4498 ± 0.0008
4 | Cc1ccccc1 [toluene] | 1.4942 ± 0.0008

The remaining lines, values ahead:

Row | refractive index | SMILES
5 | 1.4057 ± 0.0008 | COCCOCCOC [2,5,8-trioxanonane]
6 | 1.3853 ± 0.0008 | C=CCCCC [hex-1-ene]
7 | 1.3724 ± 0.0007 | CCCCCC [hexane]
